In US20260209219A1, “SUBSTITUTED TETRAHYDROPYRROLO-PYRIDINONE COMPOUNDS AND THEIR USE IN TREATING MEDICAL CONDITIONS” (Karuna Therapeutics, Inc., priority 2022, published 2026):

Key:
Sprague Dawley rats = experiment: Amphetamine-evoked hyperlocomotion in rats (open field); assay type: in vivo, rat; settings: adult male Sprague Dawley rats, 0.5 mg/kg amphetamine s.c., distance traveled over 60 min after AMP
Procedure: Animals: Adult male, Sprague Dawley rats (Envigo, Indianapolis, IN, USA) were housed in a colony maintained at 23° C. with 12 hour light/dark cycles (lights on at 0600 hour). All animals weighed 290-330 g at the beginning of the study and were equally divided into 5 groups (n=8 per group) and received one of the treatment conditions listed below. Animal protocols were approved by an Animal Care and Use Committee.
Behavioral Procedures: Studies were conducted in MedAssociates open field chambers (27.3 cm×27.3 cm×20.3 cm, MedAssociates, St. Albans, VT) in which movement was automatically tracked and recorded by 16 beam arrays. Administration pretreatment of the test article was determined to coincide with Tmax at the time of the amphetamine-evoked session with optimal route of administration. All groups were subcutaneously treated with 0.5 mg/kg amphetamine (AMP). […] Locomotor data (distance traveled) was recorded as 5-minute bins throughout the 90-minute session. […]
Statistical Analysis: Spontaneous locomotion (prior to AMP administration) was calculated as the total distance traveled during the first 30 minutes of the experimental session. AMP-evoked responses were calculated as the total distance traveled during the last 60 minutes of the experimental session which commenced immediately after AMP administration. Locomotor data were analyzed by a one-way ANOVA. […]

hM4 receptors = target: T1, hM4 receptors (Homo sapiens, UniProt P08173); experiment: Human M4 PAM pERK assay; assay type: cell-based; settings: CHO cells expressing hM4; with EC20 of acetylcholine (10 nM final)
T1 construct: expressed in transfected cells; host or cells: CHO cells
T1 sequence (P08173 1-479): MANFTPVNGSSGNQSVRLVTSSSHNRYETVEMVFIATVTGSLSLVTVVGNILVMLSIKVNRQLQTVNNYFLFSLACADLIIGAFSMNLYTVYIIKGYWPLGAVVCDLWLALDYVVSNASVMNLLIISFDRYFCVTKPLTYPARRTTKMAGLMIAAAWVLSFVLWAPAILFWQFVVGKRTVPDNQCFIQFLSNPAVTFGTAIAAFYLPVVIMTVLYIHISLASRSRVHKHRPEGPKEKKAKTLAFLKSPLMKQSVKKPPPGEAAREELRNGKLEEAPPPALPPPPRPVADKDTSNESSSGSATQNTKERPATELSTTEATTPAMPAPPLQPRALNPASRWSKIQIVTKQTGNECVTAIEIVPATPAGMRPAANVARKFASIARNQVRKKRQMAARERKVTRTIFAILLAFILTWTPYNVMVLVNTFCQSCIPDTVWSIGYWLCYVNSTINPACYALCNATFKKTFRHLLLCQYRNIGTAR
Procedure: (§1) Chinese hamster ovary (CHO) cells expressing either hM4 or rM4 receptors were frozen in assay ready vials (5×10^6 cells/vial) after bulking-up in culture. The day before an assay, vial(s) were thawed and cells seeded in 384 well white proxiplates at 1000/well for hM4 cells and at 2000/well for rM4 cells, in 10 μL of growth media (Hams/F12 with glutamax and 10% FCS) and incubated overnight at 37° C./5% CO2.
(§2) On the following morning, the growth media was removed by ‘flicking out’ over a bin, patting the inverted plate onto tissue, and then replacing with 10 μL of wash media (Hams/F12 with glutamax and 8 mM HEPES, NB: serum free). Then, the wash media was removed in the same way and replaced with 8 μL/well of the serum free media. Plates were then re-incubated for a further 4 hours at 37° C./5% CO2.
(§3) Compounds for testing were solubilized to 10 mM in DMSO and compound addition plates, consisting of ten-point concentration response curves (CRC) in duplicate points (10 μM top concentration, ½ log dilution series), were prepared by acoustic dispensing and the compound management group.
(§4) After the 4-hour incubation in serum free media, a 4 μL aliquot of the 3× compound solution containing an EC20 of acetylcholine (10 nM final concentration) was added to the cell plate using a 384 well plate to plate transfer. Then, the plate lid was replaced, and the cells incubated for 5 mins at 37° C./5% CO2. Following this final incubation, all cellular processes were stopped by the addition of 4 μL/well of lysis and blocking buffer and plates were incubated for 30 minutes at RT on an orbital shaker (gentle setting). Then, a final addition of 4 μL/well of antibody detection mix, containing both the Europium-Cryptate (donor) and d2 (acceptor) tagged detection components, was added followed by a further 2-hour incubation at RT, and then the plate was read using a TR-FRET (time resolved fluorescence resonance energy transfer) based protocol.

rM4 receptors = target: T2, rM4 receptors (Rattus norvegicus, UniProt P08485); experiment: Rat M4 PAM pERK assay; assay type: cell-based; settings: CHO cells expressing rM4; with EC20 of acetylcholine (10 nM final)
T2 construct: expressed in transfected cells; host or cells: CHO cells
T2 sequence (P08485 1-478): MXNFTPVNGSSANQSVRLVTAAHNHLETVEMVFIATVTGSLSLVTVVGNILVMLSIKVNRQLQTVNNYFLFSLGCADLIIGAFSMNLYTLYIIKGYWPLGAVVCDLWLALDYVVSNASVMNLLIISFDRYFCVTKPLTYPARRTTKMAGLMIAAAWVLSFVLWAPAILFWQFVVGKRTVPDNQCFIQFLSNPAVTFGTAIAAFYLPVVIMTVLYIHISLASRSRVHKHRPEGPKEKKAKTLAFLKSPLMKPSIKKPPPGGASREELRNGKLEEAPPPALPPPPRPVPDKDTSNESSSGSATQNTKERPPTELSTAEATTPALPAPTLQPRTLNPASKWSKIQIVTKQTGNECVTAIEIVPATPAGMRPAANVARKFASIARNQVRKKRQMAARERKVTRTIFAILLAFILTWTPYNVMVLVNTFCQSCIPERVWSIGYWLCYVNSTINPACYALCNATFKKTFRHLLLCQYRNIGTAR
Procedure: as §1, §2, §3, §4

Structure (SMILES) | Dose Amount of Compound at which rats displayed a reduction in amphetamine-evoked hyperlocomotion activity (Sprague Dawley rats) [mg/kg] | EC50 (hM4 receptors) [nM] | EC50 (rM4 receptors) [nM]
Cc1cc(=O)n(C)c2c1CN(C(=O)CC1CC1c1ccc(C(F)(F)F)cc1)C2 (single isomer, unassigned) [Compound I-7] | 32 | 100 to 500 | 100 to 500
Cc1c2c(n(C)c(=O)c1F)CN(C(=O)CC1CC1c1ccc(C(F)(F)F)cc1)C2 (stereo not drawn) [Compound I-26] | 10 | < 100 | < 100
